The values below come from ChEMBL document CHEMBL3045306, “Ultrasound-promoted synthesis, biological evaluation and molecular docking of novel 7-(2-chloroquinolin-4-yloxy)-4-methyl-2H-chromen-2-one derivatives” (2013).

Each structure is given as a SMILES string. In brackets after ≈: the same amount, converted by molar mass.

Common to all, as to assay type: functional
In test [1] the test system is Radical scavenging activity. The experiment in a line: Antioxidant activity assessed as inhibition of DPPH radical formation at 1000 ug after 30 mis UV-Vis spectrophotometric analysis. (The DPPH test is a chemical assay of radical scavenging.)
Test [2] deals with Radical scavenging activity. Kind of test: Antioxidant activity assessed as inhibition of DPPH radical formation at 500 ug after 30 mis UV-Vis spectrophotometric analysis.
Test [3] relates to Radical scavenging activity. The experiment in a line: Antioxidant activity assessed as inhibition of DPPH radical formation at 100 ug after 30 mis UV-Vis spectrophotometric analysis.
For test [4], the system named is Radical scavenging activity. Kind of test: Antioxidant activity assessed as inhibition of DPPH radical formation at 50 ug after 30 mis UV-Vis spectrophotometric analysis.
The test system of another test is Meloidogyne. Kind of test: Nematicidal activity against Meloidogyne litoralis assessed as growth inhibition.
Another test has as its system Pseudomonas aeruginosa. The experiment in a line: Antibacterial activity against Pseudomonas aeruginosa assessed as growth inhibition.
In a further test the test system is Escherichia coli. Kind of test: Antibacterial activity against Escherichia coli assessed as growth inhibition.
The test system of another test is Bacillus subtilis. Kind of test: Antibacterial activity against Bacillus subtilis assessed as growth inhibition.
The next test concerns Staphylococcus aureus. Kind of test: Antibacterial activity against Staphylococcus aureus assessed as growth inhibition.

What is called inhibition is the percentage by which the read-out fell short of the control. As usually defined, the MIC is the least concentration at which growth counts as inhibited. Regarding `Cc1cc(=O)oc2cc(Oc3cc(Cl)nc4ccc(Br)cc34)ccc12`, the inhibition was found to be 76% in [1], 54% in test [2], 26% in [3] and 24% in test [4]. In addition, the MIC in the test on Meloidogyne was found to be 6.25 µg/mL (≈ 15 µM); in the test with Pseudomonas aeruginosa it was 50 µg/mL (≈ 120 µM).
`Cc1cc(=O)oc2cc(Oc3cc(Cl)nc4c(C)cccc34)ccc12`: the inhibition in test [1] worked out at 68%; in [2], 45%; in test [3] it was 14%; in [4] it was 12%. In addition, the MIC in the test on Meloidogyne was 100 µg/mL (≈ 284 µM); in the test on Escherichia coli it was 6.25 µg/mL (≈ 17.8 µM).
As to `Cc1cc(C(C)(C)C)c(O)c(C(C)(C)C)c1`, the inhibition in test [1] was determined as 98%; in [2] it was 96%; in test [3] it was 94%; in test [4], 93%.
In the case of `CN[C@@H]1[C@H](O[C@H]2[C@H](O[C@H]3[C@H](O)[C@@H](O)[C@H](N=C(N)N)[C@@H](O)[C@@H]3N=C(N)N)O[C@@H](C)[C@]2(O)C=O)O[C@@H](CO)[C@H](O)[C@H]1O` [STREPTOMYCIN], the MIC turned out to be 12.5 µg/mL (≈ 21.5 µM) with Bacillus subtilis; 25 µg/mL (≈ 43 µM) with Staphylococcus aureus; 6.25 µg/mL (≈ 10.7 µM) in the test on Meloidogyne; 12.5 µg/mL (≈ 21.5 µM) with Pseudomonas aeruginosa; 6.25 µg/mL (≈ 10.7 µM) in the test with Escherichia coli.
Consider `Cc1ccc2c(Oc3ccc4c(C)cc(=O)oc4c3)cc(Cl)nc2c1`, for which the inhibition stood at 65% in test [1], 35% in [2], 11% in [3] and 10% in [4]. Further, the MIC with Pseudomonas aeruginosa is 12.5 µg/mL (≈ 35.5 µM).
For the compound `COc1cccc2c(Oc3ccc4c(C)cc(=O)oc4c3)cc(Cl)nc12`, the inhibition is 69% in test [1], 38% in [2], 11% in test [3] and 8% in test [4]. In addition, the MIC was found to be 100 µg/mL (≈ 272 µM) with Bacillus subtilis, 6.25 µg/mL (≈ 17 µM) in the test on Pseudomonas aeruginosa and 6.25 µg/mL (≈ 17 µM) with Escherichia coli.
As to `Cc1ccc2nc(Cl)cc(Oc3ccc4c(C)cc(=O)oc4c3)c2c1`, the inhibition in test [1] was 69%; in [2], 57%; in test [3], 20%; in test [4], 19%. For the same compound, the values for the minimum inhibitory concentration (MIC) with Staphylococcus aureus, in the test on Pseudomonas aeruginosa and with Escherichia coli were 12.5 µg/mL (≈ 35.5 µM), 100 µg/mL (≈ 284 µM) and 12.5 µg/mL (≈ 35.5 µM), respectively.
As for `Cc1cc(=O)oc2cc(Oc3cc(Cl)nc4c3ccc3ccccc34)ccc12`, the inhibition in [1] amounted to 67%; in [2] it was 40%; in test [3], 15%; in test [4] it was 14%. The MIC with Staphylococcus aureus worked out at 50 µg/mL (≈ 129 µM); in the test with Pseudomonas aeruginosa it was 6.25 µg/mL (≈ 16.1 µM); in the test with Escherichia coli, 6.25 µg/mL (≈ 16.1 µM).
Take `Cc1cc(=O)oc2cc(Oc3cc(Cl)nc4ccccc34)ccc12`: the inhibition in test [1] came out at 78%; in test [2], 53%; in test [3], 23%; in test [4], 21%. Also, the MIC in the test with Staphylococcus aureus is 50 µg/mL (≈ 148 µM); with Meloidogyne, 100 µg/mL (≈ 296 µM); with Pseudomonas aeruginosa, 12.5 µg/mL (≈ 37 µM); with Escherichia coli it was 100 µg/mL (≈ 296 µM).
